From patent US12459930B2, “Compounds for the inhibition of unregulated cell growth” (GODAVARI BIOREFINERIES LIMITED, priority 2018, dated 2025)
Where two headings read alike, the source gives them in different places.

What was measured:
[1] = tested on: PC3 prostate cancer cell line; test: In vitro antiproliferative assay (MTT assay), PC3; assay type: cell-based; details: 48 h, 48 hrs drug incubation, read-out: IC50 in micromolar, PC3 (MTT assay)
How it was run: (§1)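 Seed at predetermined efficiency → 24 h → compound 48 h → spin, discard supernatant → MTT 0.5 mg/ml 4 h → spin → DMSO. Log viability plotted against log dose.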

[2] = tested on: MDAMB231 breast cancer cell line; test: In vitro antiproliferative assay (MTT assay), MDAMB231; assay type: cell-based; details: 48 hrs drug incubation, hydrochloride, read-out: IC50 in micromolar, MDAMB231 (MTT assay)
How it was run: as §1

[3] = tested on: DU145 prostate cancer cell line; test: In vitro antiproliferative assay (MTT assay), DU145; assay type: cell-based; details: Homo sapiens, DU-145, 48 h, 48 hrs drug incubation, read-out: IC50 in micromolar, DU145 (MTT assay)
How it was run: as §1

[4] = tested on: MDAMB231 breast cancer cell line; test: Soft agar colony-formation assay, MDAMB231; assay type: cell-based; details: Homo sapiens, MDA-MB-231, 168 h, 1 week, Alamar Blue, read-out: IC50 in micromolar, MDAMB231 (Soft Agar Assay)
How it was run: (§2)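 Cells were embedded with drug in a top soft-agar layer over an agar base in 96-well format. Colonies grew for 1 week at 37 °C, 5% CO2, with medium feeding at day 3. Alamar Blue was added for 24 h, absorbance read at 630 nm, and log percent viability plotted against log drug concentration.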

[5] = tested on: MDAMB231 spheres (cancer stem cells); test: In vitro sphere-forming assay (cancer stem cells), MDAMB231 in Mammosphere media; details: for 3D sphere count of MDAMB231 in Mammosphere media: 2000 cells/well, n = 6 ± S.D
Experimental: In Vitro Sphere-forming Assay: Sphere assay measures the ability of cancer stem cells (CSCs) to form spheres in specially designed serum-free medium.
Mammosphere Media Preparation (For 100 mL): 1 g methyl cellulose autoclaved with magnetic stirrer, 100 ml plain media (MEBM) was added and dissolved under magnetic stirring. After complete dissolution FGF—80 μL, EGF—40 μL, Penstrep—1 mL, Heparin—400 μL was added.
Procedure—The cells were trypsinised and made into single-cell suspension by passing through cell strainers (100 μl and 40 μl, respectively), The cells were diluted at a concentration of 2000 cells/100 μL and suspended in either Mammosphere (for breast cell lines) or Prostosphere (for prostate cell lines). 100 μL of this suspension was added into each well of 96-well suspension plates and incubated at 37 C, 50 CO2 for 24 hrs. Appropriate concentrations of the drugs (2 L) were added into respective wells with 100 μL of stem cell culture medium. Plates were incubated at 37° C., 50% CO2 for 72 hrs. After incubation, 2.5 μL of the respective drug concentration and 50 μL of stem cell culture medium were added into each well and the plates were further incubated at 37° C., 500 CO2 for 72 hrs. 3 μL of the respective drug concentration was added with 50 μL of stem cell culture medium again after incubation and plates were reincubated for 72 hrs at 37° C., 500 CO2. Number of primary spheres formed for each concentration were counted. The spheres were converted to 0 viability of spheres compared to untreated (Growth Control with DMSO, GCD).

[6] = tested on: PC3 prostate cancer cell line; test: Soft agar colony-formation assay, PC3; assay type: cell-based; details: 168 h, 1 week, Alamar Blue, read-out: IC50 in micromolar, PC3 (Soft Agar Assay)
How it was run: as §2

[7] = tested on: PC3 spheres (cancer stem cells); details: human, 216 h
[8] = tested on: PC3 spheres (cancer stem cells); test: In vitro sphere-forming assay (cancer stem cells), PC3 in Prostosphere media; details: for 3D sphere count of PC3 in Prostosphere media: 2000 cells/well, n = 6 ± S.D
[9] = Homo sapiens, MDA-MB-231, read-out: % Viability of spheres (MDAMB231)

## COc1cc2c(OCCCCN3CCOCC3)c3c(c(-c4ccc5c(c4)OCO5)c2cc1OC)C(=O)OC3.Cl [Formula VII, 4-(4-morpholinobutoxy)-9-(benzo[d][1,3]dioxol-5-yl)-6,7-dimethoxynaphtho[2,3-c]furan-1(3H)-one Hydrochloride]
[1]
  IC50: 2.75 µM
[2]
  IC50: 3.27 µM
[3]
  IC50: 2.34 µM
[4]
  IC50: 2.05 µM
[5]; 0.0025 uM
  3D sphere count of MDAMB231 in Mammosphere media: 58(±3)
[5]; 0.025 uM
  3D sphere count of MDAMB231 in Mammosphere media: 47(±3)
[5]; 0.25 uM
  3D sphere count of MDAMB231 in Mammosphere media: 36(±3)
[5]; 2.5 uM
  3D sphere count of MDAMB231 in Mammosphere media: 29(±3)
[5]; 25 uM
  3D sphere count of MDAMB231 in Mammosphere media: 21(±2)
[5]; [9]
  viability at 0.0025 µM: 81%
  viability at 0.025 µM: 66%
  viability at 0.25 µM: 50%
  viability at 2.5 µM: 41%
  viability at 25 µM: 29%
[6]
  IC50: 2.7 µM
[7]; 0.025 µM
  % Viability of spheres (PC3): 59(±3) %
[7]; 0.25 µM
  % Viability of spheres (PC3): 50(±2) %
[7]; 2.5 µM
  % Viability of spheres (PC3): 44(±2) %
[7]; 25 µM
  % Viability of spheres (PC3): 34(±3) %
[8]; 0.0025 uM
  3D sphere count of PC3 in Prostosphere media: 56(±3)
[8]; 0.025 uM
  3D sphere count of PC3 in Prostosphere media: 46(±3)
[8]; 0.25 uM
  3D sphere count of PC3 in Prostosphere media: 41(±3)
[8]; 2.5 uM
  3D sphere count of PC3 in Prostosphere media: 37(±2)
[8]; 25 uM
  3D sphere count of PC3 in Prostosphere media: 32(±3)
[8]; read-out: % Viability of spheres (PC3), 0.0025 uM, GCD = 100% viability
  viability at 0.0025 µM: 69%
